Results published in patent US8680052B1, “Methods of treating, reducing the incidence of, and/or preventing ischemic events” (The Medicines Company, priority 2013, dated 2014).

Tested on: vasodilator-stimulated phosphoprotein (VASP)
Assay: Example 4: vasodilator-stimulated phosphoprotein (VASP) index
Assay type: in vivo, human
Procedure: The study involved 12 patients who met the criteria of being 18-75 years of age, having coronary artery disease (CAD) documented by a previous MI or coronary revascularization, and taking 81 mg of aspirin daily. […] Prohibited concomitant medications included strong and potent CYP3A inhibitors, simvastatin and lovastatin at doses more than 40 mg/day, omeprazole or esomeprazole, and digoxin. Use of non-steroidal anti-inflammatory agents was discouraged during study participation but not prohibited.
Each patient was administered a 30 μg/kg bolus of cangrelor followed immediately by a 2 hr infusion at a rate of 4.0 μg/kg/min. A loading dose of ticagrelor (180 mg) was given after 0.5 hr or 1.25 hr (n=6 for each). Blood for pharmacodynamic platelet function studies was taken after 0.5 or 1.25 hr (corresponding to the time of ticagrelor load, n=6 for each), and then at 1.75, 2, 2.25, 2.5, 2.75, 3, 4, and 5.25 hr. Patients were assigned randomly to receive either 6 (n=6) or 7 (n=6) doses of ticagrelor to be taken every 12 hours following the discontinuation of the infusion of cangrelor. On study day 5, each patient was administered a 30 μg/kg bolus of cangrelor followed immediately by a 2 hr infusion at a rate of 4.0 μg/kg/min. Blood for pharmacodynamic assessment was taken after 1 and 2 hr. Adverse events were queried throughout study participation that ended with a telephone interview performed on study day 10-12.
Pharmacodynamic assessment included light transmission aggregometry (LTA), VerifyNow® P2Y12 assay, vasodilator-stimulated phosphoprotein (VASP) index, and platelet activation measured with the use of flow cytometry. Assessment of LTA, VerifyNow®, and platelet activation with the use of flow cytometry was performed within 30 min of blood being taken. In the case of flow cytometry, samples were processed to fixation and then batched for analysis. For VASP, index samples were batched and processed as recommended by the vendor within 2 h of blood being taken. This approach limited the time from fixation of VASP index to flow analysis to less than 1 h.
LTA induced by 5 μM and 20 μM adenosine diphosphate (ADP) was quantified ex vivo (i.e. in non-adjusted platelet rich plasma). Platelet-poor plasma was set as 100% aggregation, and both maximal (peak) and terminal (at 300 s) aggregation were measured with a PAP4 aggregometer (BioData, Horsham, Pa.). VerifyNow® P2Y12 assay (Accumetrics Inc, San Diego, Calif.) that measures the effects of drugs on the P2Y12 receptor by activating platelets with prostaglandin El in addition to ADP was used in accordance with the instructions provided by the manufacturer. Platelet reactivity was expressed in P2Y12 reaction units (PRU). Activation of platelets was identified with the use of flow cytometry as previously described.^17. And to determine the VASP index, a commercially available kit (Diagnostica Stago, Inc, Parsippany NJ) was used. ^17 Schneider D J, Sobel B E. Streamlining the design of promising clinical trials: in-vitro testing of antithrombotic regimens and multiple agonists of platelet activation. Coron Artery Dis. 2009; 20:175-8.

`CSCCNc1nc(SCCC(F)(F)F)nc2c1ncn2[C@@H]1O[C@H](COP(=O)(O)OP(=O)(O)C(Cl)(Cl)P(=O)(O)O)[C@@H](O)[C@H]1O` [Cangrelor, cangrelor] was tested, and the “VASP Index VI” value (Study Day 1, 1.75 h, All) was 13 ± 9, the “VASP Index VI” value (Study Day 1, 1.75 h, Ticagrelor at 0.5 hr) was 13 ± 9 and the “VASP Index VI” value (Study Day 1, 1.75 h, Ticagrelor at 1.25 hr) was 13 ± 4. The “VASP Index VI” value (Study Day 1, 2.0 h, All) was 15 ± 9, the “VASP Index VI” value (Study Day 1, 2.0 h, Ticagrelor at 0.5 hr) was 11 ± 7 and the “VASP Index VI” value (Study Day 1, 2.0 h, Ticagrelor at 1.25 hr) was 19 ± 7. The “VASP Index VI” value (Study Day 1, reference 0.5/1.25 h, All) was 18 ± 10, the “VASP Index VI” value (Study Day 1, reference 0.5/1.25 h, Ticagrelor at 0.5 hr) was 18 ± 13 and the “VASP Index VI” value (Study Day 1, reference 0.5/1.25 h, Ticagrelor at 1.25 hr) was 19 ± 8. For the same compound, the “VASP Index VI” value (Study Day 5, 1.0 h, All) was 16 ± 11, the “VASP Index VI” value (Study Day 5, 1.0 h, Ticagrelor 6 doses) was 19 ± 14 and the “VASP Index VI” value (Study Day 5, 1.0 h, Ticagrelor 7 doses) was 12 ± 7. The “VASP Index VI” value (Study Day 5, 2.0 h, All) was 17 ± 5, the “VASP Index VI” value (Study Day 5, 2.0 h, Ticagrelor 6 doses) was 20 ± 3 and the “VASP Index VI” value (Study Day 5, 2.0 h, Ticagrelor 7 doses) was 14 ± 6.

For `CCCSc1nc(N[C@@H]2C[C@H]2c2ccc(F)c(F)c2)c2nnn([C@@H]3C[C@H](OCCO)[C@@H](O)[C@H]3O)c2n1` [ticagrelor], the “VASP Index VI” value (2.25 h, All) was 35 ± 10, the “VASP Index VI” value (2.25 h, Ticagrelor at 0.5 h) was 37 ± 8 and the “VASP Index VI” value (2.25 h, Ticagrelor at 1.25 h) was 32 ± 11. For the same compound, the “VASP Index VI” value (2.5 h, All) was 48 ± 49, the “VASP Index VI” value (2.5 h, Ticagrelor at 0.5 h) was 41 ± 25 and the “VASP Index VI” value (2.5 h, Ticagrelor at 1.25 h) was 54 ± 32. For the same compound, the “VASP Index VI” value (2.75 h, All) was 22 ± 16, the “VASP Index VI” value (2.75 h, Ticagrelor at 0.5 h) was 21 ± 13 and the “VASP Index VI” value (2.75 h, Ticagrelor at 1.25 h) was 22 ± 20. The “VASP Index VI” value (3 h, All) was 25 ± 19, the “VASP Index VI” value (3 h, Ticagrelor at 0.5 h) was 24 ± 19 and the “VASP Index VI” value (3 h, Ticagrelor at 1.25 h) was 26 ± 20. The “VASP Index VI” value (4 h, All) was 17 ± 14, the “VASP Index VI” value (4 h, Ticagrelor at 0.5 h) was 16 ± 14 and the “VASP Index VI” value (4 h, Ticagrelor at 1.25 h) was 19 ± 16. For the same compound, the “VASP Index VI” value (reference 5.25 h, All) was 12 ± 12, the “VASP Index VI” value (reference 5.25 h, Ticagrelor at 0.5 h) was 11 ± 10 and the “VASP Index VI” value (reference 5.25 h, Ticagrelor at 1.25 h) was 14 ± 15.
